# From US8791132B2, “Compounds and methods for treatment of hypertension” (Medivation Technologies, Inc., priority 2011, dated 2014)
# Experiments:
# [1] = molecular target: T1, human recombinant adrenergic α2A receptor (Homo sapiens, UniProt P08913); assay: Radioligand binding, adrenergic α2A ([3H]MK-912); settings: read-out: Percentage inhibition of ligand binding, Adrenergic α2A (0.1 μM), compound at 0.1 μM; [3H]MK-912; repeat datapoints each shown
# T1 construct: expressed in transfected cells; host or cells: insect Sf9 cells
# T1 sequence (P08913 1-465): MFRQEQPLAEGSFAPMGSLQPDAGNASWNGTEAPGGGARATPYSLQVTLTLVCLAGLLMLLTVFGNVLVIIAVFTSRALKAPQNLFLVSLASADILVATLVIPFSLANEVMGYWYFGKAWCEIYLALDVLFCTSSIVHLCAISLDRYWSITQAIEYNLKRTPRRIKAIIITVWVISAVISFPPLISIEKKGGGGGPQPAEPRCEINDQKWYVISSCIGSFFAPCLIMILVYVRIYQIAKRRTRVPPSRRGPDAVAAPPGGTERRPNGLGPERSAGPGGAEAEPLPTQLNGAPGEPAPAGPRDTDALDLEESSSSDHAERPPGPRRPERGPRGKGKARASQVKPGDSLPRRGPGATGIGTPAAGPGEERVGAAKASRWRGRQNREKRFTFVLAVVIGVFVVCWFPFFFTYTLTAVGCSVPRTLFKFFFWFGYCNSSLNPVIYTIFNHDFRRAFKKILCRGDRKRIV
# Method in brief: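 Sf9 membranes, 1 nM [3H]MK-912, 60 min, 25 °C, Tris-HCl pH 7.4/MgCl2/EDTA buffer. NSB: 10 μM WB-4101. Filtration, counting; % inhibition of specific binding.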
# [2] = molecular target: T2, rat adrenergic α1B receptor (Rattus norvegicus, UniProt P15823); assay: Radioligand binding, adrenergic α1B ([3H]Prazosin); settings: [3H]Prazosin, repeat datapoints each shown; for inhibition at 0.1 µM: read-out: Percentage inhibition of ligand binding, Adrenergic α1B (0.1 μM), compound at 0.1 μM
# T2 construct: rat adrenergic α1B receptor obtained from Wistar Rat liver; from tissue; host or cells: Wistar rat liver
# T2 sequence (P15823 1-515): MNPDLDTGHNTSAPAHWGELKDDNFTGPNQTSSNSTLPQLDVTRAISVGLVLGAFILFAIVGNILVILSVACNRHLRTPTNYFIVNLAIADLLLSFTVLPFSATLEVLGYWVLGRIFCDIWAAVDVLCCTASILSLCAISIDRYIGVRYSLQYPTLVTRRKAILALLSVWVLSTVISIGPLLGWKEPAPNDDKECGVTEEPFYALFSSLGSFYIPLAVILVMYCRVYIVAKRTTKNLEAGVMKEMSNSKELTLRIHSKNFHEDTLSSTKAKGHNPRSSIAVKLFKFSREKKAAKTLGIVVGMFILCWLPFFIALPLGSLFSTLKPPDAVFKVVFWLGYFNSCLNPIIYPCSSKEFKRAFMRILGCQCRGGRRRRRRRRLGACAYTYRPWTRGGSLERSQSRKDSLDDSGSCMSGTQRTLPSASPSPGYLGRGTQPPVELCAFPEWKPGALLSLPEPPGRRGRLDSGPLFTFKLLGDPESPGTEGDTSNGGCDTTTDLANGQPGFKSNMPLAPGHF
# Method in brief: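 Specific binding, taken as total minus that remaining with 10 μM phentolamine, is measured after filtration and counting. Rat liver receptor preparation and 0.25 nM [3H]prazosin are incubated with compound in 50 mM Tris-HCl (pH 7.4, 0.5 mM EDTA) at 25° C for 60 min. Activity is reported as percent inhibition.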
# [3] = molecular target: T3, human recombinant adrenergic α2B receptor (Homo sapiens, UniProt P18089); assay: Radioligand binding, adrenergic α2B ([3H]Rauwolscine); settings: for inhibition at 0.03 µM: read-out: Percentage inhibition of ligand binding, Adrenergic α2B (0.03 μM), compound at 0.03 μM
# T3 construct: expressed in transfected cells; host or cells: CHO-K1
# T3 sequence (P18089 1-450): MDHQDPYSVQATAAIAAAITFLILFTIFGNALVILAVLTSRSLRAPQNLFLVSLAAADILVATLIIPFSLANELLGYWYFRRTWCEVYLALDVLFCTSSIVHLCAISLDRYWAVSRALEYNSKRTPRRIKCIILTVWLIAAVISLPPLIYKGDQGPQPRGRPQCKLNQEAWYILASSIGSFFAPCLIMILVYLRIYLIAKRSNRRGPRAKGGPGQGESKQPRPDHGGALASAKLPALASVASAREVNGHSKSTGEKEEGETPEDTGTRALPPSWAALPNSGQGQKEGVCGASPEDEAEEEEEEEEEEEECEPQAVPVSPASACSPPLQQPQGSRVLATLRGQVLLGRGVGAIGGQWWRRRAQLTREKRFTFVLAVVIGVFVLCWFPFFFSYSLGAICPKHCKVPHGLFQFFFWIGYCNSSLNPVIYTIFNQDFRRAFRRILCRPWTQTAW
# Method in brief: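 Values are percent inhibition of specific radioligand binding. The receptor, expressed in CHO-K1 cells, was exposed to 2.5 nM [3H]Rauwolscine at 25° C for 60 min, with 10 μM Prazosin marking non-specific binding.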
# [4] = [3H]Rauwolscine, repeat datapoints each shown
inhibition at 0.1 µM [1] [%],inhibition at 0.1 µM [2] [%],"inhibition at 0.03 µM [3, 4] [%]","Percentage inhibition of ligand binding, Adrenergic α1B (0.1 μM) ([2]; compound at 0.1 μM, 0.1 µM) [%]","inhibition at 0.03 µM ([2]; read-out: Percentage inhibition of ligand binding, Adrenergic α1B (0.03 μM), compound at 0.03 μM) [%]","Percentage inhibition of ligand binding, Adrenergic α2B (0.03 μM) ([3]; compound at 0.03 μM, [3H]Rauwolscine, repeat datapoints each shown, 0.03 µM) [%]",Ki ([3]; read-out: Ki α2B) [nM],"inhibition at 0.1 µM ([3]; read-out: Percentage inhibition of ligand binding, Adrenergic α2B (0.1 μM), compound at 0.1 μM, [3H]Rauwolscine, repeat datapoints each shown) [%]",Compound
26,19,99,–,–,–,–,–,"Cc1ccc2c(c1)c1c(n2CC(CC(=O)C(C)(C)C)c2ccncc2)CCN(C)C1 (centres unmarked) [II-222, 6-(2,8-dimethyl-1,2,3,4-tetrahydro-pyrido[4,3-b]indol-5-yl)-2,2-dimethyl-5-pyridin-4-yl-hexan-3-one]"
8,9,88,–,–,–,–,–,"COC(=O)CC(Cn1c2c(c3cc(C)ccc31)CN(C)CC2)c1ccncc1 (centres unmarked) [II-223, 4-(2,8-dimethyl-1,2,3,4-tetrahydro-pyrido[4,3-b]indol-5-yl)-3-pyridin-4-yl-butyric acid methyl ester]"
22,13,68,–,–,–,–,–,"Cc1ccc2c(c1)c1c(n2CC(CCO)c2ccncc2)CCN(C)C1 (centres unmarked) [II-224, 4-(2,8-dimethyl-1,2,3,4-tetrahydro-pyrido[4,3-b]indol-5-yl)-3-pyridin-4-yl-butan-1-ol]"
-1,9,8,–,–,–,–,–,Cc1ccc2c(c1)c1c(n2CC(CO)c2ccncc2)CCN(C)C1 (centres unmarked) [II-225]
4,15,40,–,–,–,–,–,"Cc1ccc2c(c1)c1c(n2CC(CC(C)(C)O)c2ccncc2)CCN(C)C1 (centres unmarked) [II-226, 5-(2,8-dimethyl-1,2,3,4-tetrahydro-pyrido[4,3-b]indol-5-yl)-2-methyl-4-pyridin-4-yl-pentan-2-ol]"
3,-2,10,–,–,–,–,–,Cc1ccc2c(c1)c1c(n2CC(CC(=O)O)c2ccncc2)CCN(C)C1 (centres unmarked) [II-228]
6,3,12,–,–,–,–,–,"Cc1ccc2c(c1)c1c(n2CC(CC(N)=O)c2ccncc2)CCN(C)C1 (centres unmarked) [II-229, 4-(2,8-dimethyl-1,2,3,4-tetrahydro-pyrido[4,3-b]indol-5-yl)-3-pyridin-4-yl-butyramide]"
1,-2,22,–,–,–,–,–,"Cc1ccc2c(c1)c1c(n2CC(CC(=O)N(C)C)c2ccncc2)CCN(C)C1 (centres unmarked) [II-230, 4-(2,8-dimethyl-1,2,3,4-tetrahydro-pyrido[4,3-b]indol-5-yl)-N,N-dimethyl-3-pyridin-4-yl-butyramide]"
9,11,-2,–,–,–,–,–,"Cc1ccc2c(c1)c1c(n2CC(CCN)c2ccncc2)CCN(C)C1 (centres unmarked) [II-231, 4-(2,8-dimethyl-1,2,3,4-tetrahydro-pyrido[4,3-b]indol-5-yl)-3-pyridin-4-yl-butylamine]"
3,3,28,–,–,–,–,–,"Cc1ccc2c(c1)c1c(n2CC(CCN(C)C)c2ccncc2)CCN(C)C1 (centres unmarked) [II-232, [4-(2,8-dimethyl-1,2,3,4-tetrahydro-pyrido[4,3-b]indol-5-yl)-3-pyridin-4-yl-butyl]-dimethyl-amine]"
7,57,53,–,–,–,–,–,Cc1cnc2c(c1)c1c(n2CCc2ccncc2)CCN(C)C1 [II-240]
-1,5,-1,–,–,–,–,–,CN1CCc2c(c3ncccc3n2CC(O)c2ccncc2)C1 (centres unmarked) [II-241]
2,4,3,–,–,–,–,–,CN1CCc2c(c3ccncc3n2CC(O)c2ccncc2)C1 (centres unmarked) [II-242]
19,91,58,93,79,61,9.44,82,"Cc1cnc2c(c1)c1c(n2CCc2ccc(C(N)=O)nc2)CCN2CCCC12 (centres unmarked) [II-243, 5-[2-(9-methyl-1,2,3,4,5,10c-hexahydro-3a,6,7-triaza-cyclopenta[c]fluoren-6-yl)-ethyl]-pyridine-2-carboxylic acid amide]"
7,27,44,–,–,–,–,–,Cc1cnc2c(c1)c1c(n2CCc2cnccn2)CCN2CCCC12 (centres unmarked) [II-245]
47,-2,5,–,–,–,–,–,"Cc1ccc(CCn2c3c(c4c(Cl)ccc(Cl)c42)CCN(C)CC3)cn1 [II-246, 7,10-dichloro-1,2,3,4,5,6-hexahydro-3-methyl-6-(2-(6-methylpyridin-3-yl)ethyl)azepino [4,5-b]indole]"
83,3,19,–,–,–,–,–,"Cc1ccc(CCn2c3c(c4c(Br)ccc(Cl)c42)CN(C)CC3)cn1 [II-247, 9-bromo-6-chloro-2,3,4,5-tetrahydro-2-methyl-5-(2-(6-methylpyridin-3-yl)ethyl)-1H-pyrido[4,3-b]indole]"
88,4,5,–,–,–,–,–,"Cc1ccc(CCn2c3c(c4c(Cl)ccc(F)c42)CN(C)CC3)cn1 [II-248, 9-chloro-6-fluoro-2,3,4,5-tetrahydro-2-methyl-5-(2-(6-methylpyridin-3-yl)ethyl)-1H-pyrido[4,3-b]indole]"
74,6,4,–,–,–,–,–,"Cc1ccc(CCn2c3c(c4c(Cl)ccc(Cl)c42)CCN(C)C3)cn1 [II-249, 5,8-dichloro-2,3,4,9-tetrahydro-2-methyl-9-(2-(6-methylpyridin-3-yl)ethyl)-1H-pyrido[3,4-b]indole]"
57,-5,6,–,–,–,–,–,Cc1ccc(CCn2c3c(c4c(F)ccc(F)c42)CN(C)CC3)cn1 [II-250]
81,-7,-4,–,–,–,–,–,Cc1ccc(CCn2c3c(c4c(Br)ccc(Br)c42)CN(C)CC3)cn1 [II-251]
91,-1,1,–,–,–,–,–,Cc1ccc(CCn2c3c(c4c(Cl)ccc(Br)c42)CN(C)CC3)cn1 [II-252]
54,9,16,–,–,–,–,–,Cc1ccc(CCn2c3c(c4c(F)ccc(Cl)c42)CN(C)CC3)cn1 [II-253]
70,71,103,–,–,–,–,–,"Cc1ccc2c(c1)c1c(n2CC(N=[N+]=[N-])c2cnccn2)CCN2CCCC12 (centres unmarked) [II-261, 6-(2-azido-2-pyrazin-2-yl-ethyl)-9-methyl-2,3,4,5,6,10c-hexahydro-1H-3a,6-diaza-cyclopenta[c]fluorene]"
